# Tests used:
# gpH3R = target: T1, gpH3R (Cavia porcellus, UniProt Q9JI35); test: Ex vivo gpH3R screening on isolated guinea pig ileum electrically stimulated to contraction
# T1 construct: isolated guinea pig ileum electrically stimulated to contraction; from tissue; host or cells: distal ileum of male guinea pigs
# Protocol: All newly synthesized compounds were evaluated ex vivo as H3R antagonists/inverse agonists on guinea pig ileum (gpH3R) stimulated electrically for contraction.[47]
# The compounds were tested against H3R by an ex vivo assay using isolated guinea pig ileum electrically stimulated to contraction, according to Vollinga et al.[47] The pA2-values were calculated according to Arunlakshana and Schild.[59] The radioligand-displacement assay was performed in membrane fractions of HEK-293 cells stably expressing hH3R. Cell cultivation and membrane preparation were performed according to Kottke et al.[48] The Ki values were calculated from the IC50 values using the Cheng–Prusoff equation.[60] The statistical calculations were performed on −log(Ki). […] The inhibitory activities toward AChE and BuChE of novel ADS compounds were assessed in a spectrophotometric Ellman’s assay using electric eel AChE (eeAChE) and equine BuChE (eqBuChE).[57] Intracellular cAMP accumulation was measured with a homogeneous TR-FRET immunoassay using the LANCE Ultra cAMP kit (PerkinElmer) and HEK293 cells stably expressing the human histamine H3 receptor.[61] A more detailed description of the biological methods is presented in the Supporting Information.
# 3. Pharmacological assay results.
# 3.1. Ex vivo assay for histamine H 3R receptor antagonists on guinea pig ileum.
# Male guinea pigs, weighing 300-400 g were euthanized by a blow to the neck. Following this, a 20-30 cm length of the distal ileum, apart from the terminal 5 cm was rapidly removed and […]
# USA) (1·10 -6 mol/L). The intraluminal content was rinsed and the isolated intestine was cut into 1.5-2 cm segments. The preparations were mounted between two platinum electrodes […]
# and indomethacin (3·10 -7 mol/L).
# CO2 mixture and maintained at 37 °C under a constant load of 1.0 g (Hugo Sachs Hebel-Messvorsatz (Tl-2)/HF-modem; Hugo Sachs Elektronik, Hugstetten, Germany) connected to a pen recorder (Kipp & Zonen BD41, Delft, Holland). During an equilibration period of 60 min, the Krebs buffer was changed every 10 min. The preparations were then continuously stimulated at 15-20 V at a frequency of 0.1 Hz for a duration of 0.5 ms, with rectangular-wave electrical pulses (Grass Stimulator S-88; Grass Instruments Co., Quincy, Massachusetts, […]
# USA). […] Five minutes before (R)-(−)-α- […]
# methylhistamine (RAMH) (Toronto Research Chemicals Inc., North York, Canada), administration, pyrilamine (Sigma-Aldrich, St. Louis, MO, USA) (1·10-5 mol/L concentration in organ bath) was added. The first cumulative concentration-response curve was determined […]
# second to fourth curve was measured against increasing antagonist concentration (incubation time 20 min). The pA2-values were calculated according to Arunlakshana and Schild 5.
# Statistical analysis was carried out with the Student’s t-test. In all tests, a p<0.05 was […]
# considered statistically significant. The pA2 values were compared with the affinity of thioperamide (Sigma-Aldrich, St. Louis, MO, USA). […]
# eqBuChE = eqBuChE (Equus caballus, UniProt P81908); test: biochemical
# Sequence of eqBuChE (P81908 whole entry): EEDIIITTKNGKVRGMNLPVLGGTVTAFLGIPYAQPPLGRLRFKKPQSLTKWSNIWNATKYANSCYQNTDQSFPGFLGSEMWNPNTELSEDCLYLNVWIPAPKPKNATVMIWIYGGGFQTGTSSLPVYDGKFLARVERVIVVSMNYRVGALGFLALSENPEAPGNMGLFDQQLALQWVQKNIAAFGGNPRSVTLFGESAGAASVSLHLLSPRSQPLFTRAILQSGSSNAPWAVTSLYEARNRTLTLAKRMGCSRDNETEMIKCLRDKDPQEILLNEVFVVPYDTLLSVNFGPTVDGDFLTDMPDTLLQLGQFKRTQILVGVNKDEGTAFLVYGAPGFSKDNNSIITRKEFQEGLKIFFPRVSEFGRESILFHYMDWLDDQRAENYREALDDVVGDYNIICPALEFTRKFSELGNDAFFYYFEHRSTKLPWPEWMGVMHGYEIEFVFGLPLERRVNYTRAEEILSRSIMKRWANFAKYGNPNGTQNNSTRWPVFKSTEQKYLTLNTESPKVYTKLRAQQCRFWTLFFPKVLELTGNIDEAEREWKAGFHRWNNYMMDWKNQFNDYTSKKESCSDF
# [1] = target: T2, human histamine H3 receptor (Homo sapiens, UniProt Q9Y5N1); test: H3R intrinsic activity, cAMP accumulation assay in HEK293 cells; type: cell-based
# T2 construct: expressed in transfected cells
# T2 sequence (Q9Y5N1 whole entry): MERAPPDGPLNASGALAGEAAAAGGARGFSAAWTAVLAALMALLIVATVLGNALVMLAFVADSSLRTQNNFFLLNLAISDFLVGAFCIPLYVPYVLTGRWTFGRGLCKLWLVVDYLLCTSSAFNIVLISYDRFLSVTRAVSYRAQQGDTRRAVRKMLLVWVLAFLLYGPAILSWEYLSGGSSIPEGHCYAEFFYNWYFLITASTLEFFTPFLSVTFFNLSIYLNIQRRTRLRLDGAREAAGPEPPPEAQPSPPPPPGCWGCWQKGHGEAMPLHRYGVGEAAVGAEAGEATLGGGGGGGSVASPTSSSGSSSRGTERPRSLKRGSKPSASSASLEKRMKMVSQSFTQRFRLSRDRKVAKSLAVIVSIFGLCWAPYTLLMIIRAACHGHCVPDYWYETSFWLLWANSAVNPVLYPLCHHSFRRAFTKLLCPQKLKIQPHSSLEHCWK
# Protocol: For the lead compound ADS031, intrinsic activity at H3R was tested in HEK293 cells expressing recombinant human receptors using a cAMP accumulation assay. […] […].
# The compounds were tested against H3R by an ex vivo assay using isolated guinea pig ileum electrically stimulated to contraction, according to Vollinga et al.[47] The pA2-values were calculated according to Arunlakshana and Schild.[59] The radioligand-displacement assay was performed in membrane fractions of HEK-293 cells stably expressing hH3R. Cell cultivation and membrane preparation were performed according to Kottke et al.[48] The Ki values were calculated from the IC50 values using the Cheng–Prusoff equation.[60] The statistical calculations were performed on −log(Ki). The mean values and 95% confidence intervals were transformed to nanomolar concentrations. The inhibitory activities toward AChE and BuChE of novel ADS compounds were assessed in a spectrophotometric Ellman’s assay using electric eel AChE (eeAChE) and equine BuChE (eqBuChE).[57] Intracellular cAMP accumulation was measured with a homogeneous TR-FRET immunoassay using the LANCE Ultra cAMP kit (PerkinElmer) and HEK293 cells stably expressing the human histamine H3 receptor.[61] A more detailed description of the biological methods is presented in the Supporting Information.
# 3.4. H3R intrinsic activity.
# Intracellular cAMP accumulation was measured with homogenous TR-FRET immunoassay, using LANCE Ultra cAMP kit (PerkinElmer) and HEK293 cells, stably expressing human histamine H3 receptor. An antagonist dose-response experiments were performed in a total assay volume of 20 μl in white 384-well plates, using 750 cells/well. […] TR-FRET signal was read on Spark microplate reader (Tecan Life Sciences). Measured TR-FRET, which was inversely proportional to cAMP quantities in the sample, was then normalized and presented as % of maximal cAMP accumulation in the assay determined for the forskolin alone-stimulated cells. […]
# eeAChE = target: T3, eeAChE (Electrophorus electricus, UniProt O42275); test: biochemical
# T3 construct: purchased Sigma–Aldrich (Steinheim, Germany)
# T3 sequence (O42275 24-633): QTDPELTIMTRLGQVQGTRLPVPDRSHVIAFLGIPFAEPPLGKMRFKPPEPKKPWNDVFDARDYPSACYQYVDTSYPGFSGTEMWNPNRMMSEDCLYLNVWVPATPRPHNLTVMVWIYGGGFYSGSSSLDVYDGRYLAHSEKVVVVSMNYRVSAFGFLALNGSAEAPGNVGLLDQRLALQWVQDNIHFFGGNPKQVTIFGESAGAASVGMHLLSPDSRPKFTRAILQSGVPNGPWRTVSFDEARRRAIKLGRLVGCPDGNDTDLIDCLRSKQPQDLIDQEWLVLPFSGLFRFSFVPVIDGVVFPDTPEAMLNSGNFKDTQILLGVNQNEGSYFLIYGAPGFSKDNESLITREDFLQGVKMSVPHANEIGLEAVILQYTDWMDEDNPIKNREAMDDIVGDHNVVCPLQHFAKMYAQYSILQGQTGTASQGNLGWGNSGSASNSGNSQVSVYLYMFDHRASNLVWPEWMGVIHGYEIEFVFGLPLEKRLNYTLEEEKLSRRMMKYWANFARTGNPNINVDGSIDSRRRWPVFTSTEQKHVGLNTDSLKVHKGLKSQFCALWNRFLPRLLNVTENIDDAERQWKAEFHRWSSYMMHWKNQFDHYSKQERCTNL
# T1 sequence (Q9JI35 whole entry): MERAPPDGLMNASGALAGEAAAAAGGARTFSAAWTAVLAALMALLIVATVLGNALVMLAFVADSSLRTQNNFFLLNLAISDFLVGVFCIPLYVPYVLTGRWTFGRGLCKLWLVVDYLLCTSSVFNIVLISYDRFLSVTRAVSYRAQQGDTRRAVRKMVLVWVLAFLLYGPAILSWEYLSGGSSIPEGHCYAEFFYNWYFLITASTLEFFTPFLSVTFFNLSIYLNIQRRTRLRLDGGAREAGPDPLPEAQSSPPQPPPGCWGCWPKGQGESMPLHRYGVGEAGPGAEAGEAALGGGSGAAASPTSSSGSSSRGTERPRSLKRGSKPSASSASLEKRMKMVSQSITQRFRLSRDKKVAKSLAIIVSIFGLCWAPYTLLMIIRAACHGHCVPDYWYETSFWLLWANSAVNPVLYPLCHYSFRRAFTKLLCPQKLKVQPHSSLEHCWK
smiles,measurement,setting,value
"CCCN(C)Cc1ccc2cc(COC3CCN(Cc4ccccc4)CC3)ccc2c1 [ADS031, N-((6-(((1-Benzylpiperidin-4-yl)oxy)methyl)naphthalen-2-yl)methyl)-N-methylpropan-1-amine]",Kb,gpH3R,28.8 nM
same,inhibition at 10 µM,eqBuChE; read-out: eqBuChE % inh. (10 μM) ± SD,93.1 ± 0.4%
same,IC50,eqBuChE; read-out: eqBuChE IC50 [μM] ± sem,1.35 ± 0.05 µM
same,Kb,"[1]; Leff-Dougall variant of Cheng-Prusoff equation, read-out: Kb in H3R functional assay (cAMP accumulation)",0.75 ± 0.15 nM
same,IC50,"[1]; against (R)-(−)-α-methylhistamine (30 nM), forskolin-stimulated HEK293 cells, read-out: IC50 in H3R functional assay (cAMP accumulation)",41.7 ± 8.5 nM
same,H3R intrinsic activity,[1]; cAMP accumulation assay,H3R antagonist/inverse agonist
same,inhibition at 10 µM,eeAChE; read-out: eeAChE % inh. (10μM) ± SD,84.2 ± 0.6%
same,IC50,eeAChE; read-out: eeAChE IC50 (μM) ± sem,1.54 ± 0.038 µM

# Source: article PMC10958501, “4-Oxypiperidine Ethers as Multiple Targeting Ligands at Histamine H3 Receptors and Cholinesterases” (ACS Chemical Neuroscience, 2024)
